# According to article PMC4764201, “High Throughput Screen for Escherichia coli Twin Arginine Translocation (Tat) Inhibitors” (PLoS ONE, 2016):
# What was measured:
# [1] = molecular target: T1, E. coli Tat machinery (IMVs containing overproduced TatABC) (Escherichia coli, UniProt P69423+P69425+P69428); test: In vitro Tat transport assay of pre-SufI into IMVs, ATP as energy source; assay type: biochemical; settings: hit compound 20 μM; ATP 1 mM
# Protocol: (§1) To directly test for inhibition of Tat transport, a gel-based in vitro Tat transport assay was performed using pre-SufI, an authentic Tat precursor protein [7]. In short, this assay consists of incubating a Tat substrate and a Δψ-generating energy source with inverted membrane vesicles (IMVs) containing overproduced TatABC, digesting remaining external protein with a protease, and then analyzing via SDS-PAGE. This assay was run twice using NADH and ATP (if warranted) as energy sources to generate the necessary Δψ. NADH generates a Δψ using respiratory proteins (i.e., the NADH dehydrogenase and cytochrome bo3 ubiquinol oxidase complexes) and ATP generates a Δψ by reversal of ATP synthase. A true Tat inhibitor would survive both assays. In contrast, a respiration inhibitor is expected to reduce Tat transport when only one of the two energy sources is used (except for an ionophore).
# Fig 8 Effect of Hits from the Local HTS on In Vitro Tat Transport. (A) Tat transport assays of pre-SufI using NADH to generate a Δψ. […] Samples were treated with the protease proteinase K, run on SDS-PAGE, and analyzed by in-gel fluorescence imaging. Assays were run in duplicate. Band intensity corresponds to the amount of protein transported into the IMV lumen. The following 7 compounds survived this screen: 1^JS, 51^JS, 55^JS, 111^JS, 181^JS, 202^JS, and 140^JS (boxed in red). (B) Tat transport assays of pre-SufI using ATP to generate a Δψ. All 7 compounds surviving the screen in (A) were tested using a Tat transport assay performed identically to those in (A) except that ATP (1 mM) was used in place of NADH. […]
# Isolation of inverted membrane vesicles (IMVs), Western blot analyses and purification of pre-SufI-IAC were performed as described previously. […] The presence of a Δψ was determined by measuring oxonol VI fluorescence in presence of Tat^+ IMVs (A280 = 0.5), as described previously, except that the translocation buffer lacked BSA. Steady-state fluorescence spectra and fluorescence intensities of whole cells producing mCherry proteins were determined with an SLM-8100 spectrofluorometer.
# [2] = molecular target: T1, E. coli Tat machinery (IMVs containing overproduced TatABC); test: In vitro Tat transport assay of pre-SufI into IMVs, NADH as energy source; assay type: biochemical; settings: hit compound 20 μM; NADH 4 mM; 37°C 30 min
# Protocol: as §1
# Fig 8 Effect of Hits from the Local HTS on In Vitro Tat Transport. (A) Tat transport assays of pre-SufI using NADH to generate a Δψ. Inverted membrane vesicles (IMVs; A280 = 5.0), the fluorescent substrate pre-SufI-IAC^Atto565 (90 nM), and NADH (4 mM) were incubated at 37°C for 30 min with DMSO (control) or with hit compound (20 μM). Samples were treated with the protease proteinase K, run on SDS-PAGE, and analyzed by in-gel fluorescence imaging. Assays were run in duplicate. Band intensity corresponds to the amount of protein transported into the IMV lumen. The following 7 compounds survived this screen: 1^JS, 51^JS, 55^JS, 111^JS, 181^JS, 202^JS, and 140^JS (boxed in red). (B) Tat transport assays of pre-SufI using ATP to generate a Δψ. All 7 compounds surviving the screen in (A) were tested using a Tat transport assay performed identically to those in (A) except that ATP (1 mM) was used in place of NADH. Compound 55^JS was eliminated by this assay—the other 6 compounds survived (boxed in red). (C) Chemical structure of compound 55^JS, N-(4,7-Dioxo-4,7-dihydro-2,1,3-benzoxadiazol-5-yl)acetamide.
# Isolation of inverted membrane vesicles (IMVs), Western blot analyses and purification of pre-SufI-IAC were performed as described previously. Western blots were performed using rabbit anti-mCherry antibodies (1:10,000 dilution) in the presence of 0.1% Triton X-100 and 0.1% Tween 20. The pre-SufI-IAC protein was labeled with Atto565 maleimide, and the resultant fluorescent protein, pre-SufI-IAC^Atto565, was used as a substrate for the in vitro Tat transport assays (A280 = 5.0), as described previously. The presence of a Δψ was determined by measuring oxonol VI fluorescence in presence of Tat^+ IMVs (A280 = 0.5), as described previously, except that the translocation buffer lacked BSA. Steady-state fluorescence spectra and fluorescence intensities of whole cells producing mCherry proteins were determined with an SLM-8100 spectrofluorometer.
# Supplementary file pone.0149659.s003.tiff: S3 Fig IC50's for Hit Compound 181^JS. (A) The total cellular mCherry fluorescence (live cell assay; n = 1), (B) the in vitro NADH-dependent Tat transport efficiency of pre-SufI (n = 1), and (C) the maximum transmembrane electrical potential gradient (n = 1) were measured for a range of concentrations of compound 181^JS (S2E Fig). (D) SDS-PAGE gel showing in-gel fluorescence data used in (B). For (A), cells expressing spTorA-mCherry-SsrA were grown under Tat^++ conditions in a 384-well plate in the presence of 0, 0.08, 0.15, 0.3, 0.63, 1.25, 2.5, 5, 10, 20, or 40 μM compound 181^JS, as described for the HTS assay (see Methods). For (B) and (C), IMVs were incubated with the same concentrations of compound 181^JS prior to initiation of Tat transport and Δψ generation by the addition of NADH, as described previously. The red curves are best-fits using y = d + (100-d)/(1+(x/IC50)^b), where b is a slope factor and d is the high concentration asymptote. (TIFF) Click here for additional data file.
# T1 sequence (P69423 2-258): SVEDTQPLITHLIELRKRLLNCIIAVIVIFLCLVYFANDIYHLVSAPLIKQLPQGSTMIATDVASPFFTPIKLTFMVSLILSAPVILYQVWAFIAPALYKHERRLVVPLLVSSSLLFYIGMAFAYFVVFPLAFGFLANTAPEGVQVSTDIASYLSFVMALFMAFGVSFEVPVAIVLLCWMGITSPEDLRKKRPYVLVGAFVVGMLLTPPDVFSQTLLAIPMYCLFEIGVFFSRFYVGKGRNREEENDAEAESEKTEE
# T1 sequence (P69425 whole entry): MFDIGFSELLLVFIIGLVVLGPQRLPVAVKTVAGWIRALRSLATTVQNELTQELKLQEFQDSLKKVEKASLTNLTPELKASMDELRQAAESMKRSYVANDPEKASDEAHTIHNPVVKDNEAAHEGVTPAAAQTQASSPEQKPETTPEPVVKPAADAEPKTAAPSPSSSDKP
# T1 sequence (P69428 whole entry): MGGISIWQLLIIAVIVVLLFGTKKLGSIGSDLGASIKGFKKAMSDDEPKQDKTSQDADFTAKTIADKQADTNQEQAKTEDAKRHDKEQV
structure (smiles),measurement,setting,value
"CC(=O)NC1=CC(=O)c2nonc2C1=O [Compound 55^JS, N-(4,7-dioxo-2,1,3-benzoxadiazol-5-yl)acetamide]",outcome of ATP-dependent in vitro Tat transport screen (survival = visible inhibition of Tat transport),[1],eliminated
same,outcome of NADH-dependent in vitro Tat transport screen (survival = visible inhibition of Tat transport),[2],survived
